Measured values: PMC8492687, “An ethylene biosynthesis enzyme controls quantitative variation in maize ear length and kernel yield” (Nature Communications, 2021)

Biological target: T1, ZmACO2 (Zea mays, UniProt A0A804UDP7)
T1 construct: gene LOC100382364
Assay: ethylene production by gas chromatography with flame-ionization detection
Type: biochemical
Conditions: 5 mM ascorbate, 20 mM bicarbonate, 0.02 mM iron sulfate, 1 mM DTT, 10% glycerol, MOPS pH 7.2, 30 °C; ACC varied, Michaelis-Menten fit drawn

T1 sequence (A0A804UDP7 1-326): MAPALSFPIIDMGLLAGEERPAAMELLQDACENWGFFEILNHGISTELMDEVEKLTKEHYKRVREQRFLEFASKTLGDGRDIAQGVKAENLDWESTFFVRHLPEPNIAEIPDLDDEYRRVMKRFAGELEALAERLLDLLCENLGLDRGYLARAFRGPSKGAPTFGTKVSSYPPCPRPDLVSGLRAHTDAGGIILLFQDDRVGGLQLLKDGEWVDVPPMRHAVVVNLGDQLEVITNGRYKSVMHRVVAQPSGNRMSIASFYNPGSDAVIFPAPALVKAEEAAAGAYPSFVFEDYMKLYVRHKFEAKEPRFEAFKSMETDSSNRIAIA

SMILES: NC1(C(=O)O)CC1 [ACC]
- ethylene production by gas chromatography with flame-ionization detection: The amount of ethylene production catalyzed by ZmACO2 increased exponentially up to an ACC concentration
